Measured values from ChEMBL document CHEMBL1201862, “PubChem BioAssay data set” (2004).
Activity calls are given as the source filed them.

Tests used:
[1] = target: T1, 1-phosphatidylinositol 4,5-bisphosphate phosphodiesterase gamma-1 (Homo sapiens, UniProt P19174); assay: Counterscreen for inhibitors of phospholipase C isozymes (PLC-B3): Fluorescence-based biochemical high throughput dose response assay to identify inhibitors of phospholipase C isozymes (PLC-gamma1).
T1 sequence (P19174 whole entry): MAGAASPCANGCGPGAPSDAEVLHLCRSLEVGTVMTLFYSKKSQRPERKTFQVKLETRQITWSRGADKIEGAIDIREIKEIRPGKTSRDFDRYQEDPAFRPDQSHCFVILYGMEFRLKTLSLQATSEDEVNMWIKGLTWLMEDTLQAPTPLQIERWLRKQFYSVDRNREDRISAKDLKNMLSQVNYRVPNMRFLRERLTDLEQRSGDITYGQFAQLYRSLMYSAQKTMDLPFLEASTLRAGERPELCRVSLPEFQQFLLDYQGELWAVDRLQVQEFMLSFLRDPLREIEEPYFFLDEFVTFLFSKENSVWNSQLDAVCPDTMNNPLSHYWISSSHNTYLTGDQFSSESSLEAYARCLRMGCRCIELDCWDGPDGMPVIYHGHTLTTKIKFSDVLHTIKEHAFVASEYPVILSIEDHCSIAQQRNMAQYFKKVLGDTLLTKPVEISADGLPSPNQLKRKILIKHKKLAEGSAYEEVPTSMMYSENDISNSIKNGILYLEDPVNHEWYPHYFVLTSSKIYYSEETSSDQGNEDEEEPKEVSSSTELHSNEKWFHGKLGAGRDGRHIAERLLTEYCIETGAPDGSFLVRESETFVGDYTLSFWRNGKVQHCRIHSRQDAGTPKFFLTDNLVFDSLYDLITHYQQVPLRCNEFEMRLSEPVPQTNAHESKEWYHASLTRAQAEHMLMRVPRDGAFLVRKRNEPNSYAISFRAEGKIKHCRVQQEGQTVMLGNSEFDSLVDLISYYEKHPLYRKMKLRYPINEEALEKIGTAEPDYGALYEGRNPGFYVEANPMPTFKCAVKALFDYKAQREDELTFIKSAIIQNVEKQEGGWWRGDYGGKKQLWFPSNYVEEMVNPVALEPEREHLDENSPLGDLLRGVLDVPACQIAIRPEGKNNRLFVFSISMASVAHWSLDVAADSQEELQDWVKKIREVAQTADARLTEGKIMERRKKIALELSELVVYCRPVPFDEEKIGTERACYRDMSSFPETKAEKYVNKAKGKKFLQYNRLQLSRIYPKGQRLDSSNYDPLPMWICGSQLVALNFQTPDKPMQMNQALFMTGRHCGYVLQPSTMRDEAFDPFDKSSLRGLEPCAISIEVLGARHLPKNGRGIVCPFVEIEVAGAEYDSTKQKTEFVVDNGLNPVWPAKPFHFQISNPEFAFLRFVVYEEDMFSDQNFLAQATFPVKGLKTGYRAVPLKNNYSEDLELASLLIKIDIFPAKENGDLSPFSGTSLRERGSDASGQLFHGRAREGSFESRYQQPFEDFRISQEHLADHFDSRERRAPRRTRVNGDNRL

[2] = target: T2, 1-phosphatidylinositol 4,5-bisphosphate phosphodiesterase beta-3 (Homo sapiens, UniProt Q01970); assay: Fluorescence-based biochemical high throughput dose response assay to identify inhibitors of phospholipase C isozymes (PLC-B3).
T2 sequence (Q01970 whole entry): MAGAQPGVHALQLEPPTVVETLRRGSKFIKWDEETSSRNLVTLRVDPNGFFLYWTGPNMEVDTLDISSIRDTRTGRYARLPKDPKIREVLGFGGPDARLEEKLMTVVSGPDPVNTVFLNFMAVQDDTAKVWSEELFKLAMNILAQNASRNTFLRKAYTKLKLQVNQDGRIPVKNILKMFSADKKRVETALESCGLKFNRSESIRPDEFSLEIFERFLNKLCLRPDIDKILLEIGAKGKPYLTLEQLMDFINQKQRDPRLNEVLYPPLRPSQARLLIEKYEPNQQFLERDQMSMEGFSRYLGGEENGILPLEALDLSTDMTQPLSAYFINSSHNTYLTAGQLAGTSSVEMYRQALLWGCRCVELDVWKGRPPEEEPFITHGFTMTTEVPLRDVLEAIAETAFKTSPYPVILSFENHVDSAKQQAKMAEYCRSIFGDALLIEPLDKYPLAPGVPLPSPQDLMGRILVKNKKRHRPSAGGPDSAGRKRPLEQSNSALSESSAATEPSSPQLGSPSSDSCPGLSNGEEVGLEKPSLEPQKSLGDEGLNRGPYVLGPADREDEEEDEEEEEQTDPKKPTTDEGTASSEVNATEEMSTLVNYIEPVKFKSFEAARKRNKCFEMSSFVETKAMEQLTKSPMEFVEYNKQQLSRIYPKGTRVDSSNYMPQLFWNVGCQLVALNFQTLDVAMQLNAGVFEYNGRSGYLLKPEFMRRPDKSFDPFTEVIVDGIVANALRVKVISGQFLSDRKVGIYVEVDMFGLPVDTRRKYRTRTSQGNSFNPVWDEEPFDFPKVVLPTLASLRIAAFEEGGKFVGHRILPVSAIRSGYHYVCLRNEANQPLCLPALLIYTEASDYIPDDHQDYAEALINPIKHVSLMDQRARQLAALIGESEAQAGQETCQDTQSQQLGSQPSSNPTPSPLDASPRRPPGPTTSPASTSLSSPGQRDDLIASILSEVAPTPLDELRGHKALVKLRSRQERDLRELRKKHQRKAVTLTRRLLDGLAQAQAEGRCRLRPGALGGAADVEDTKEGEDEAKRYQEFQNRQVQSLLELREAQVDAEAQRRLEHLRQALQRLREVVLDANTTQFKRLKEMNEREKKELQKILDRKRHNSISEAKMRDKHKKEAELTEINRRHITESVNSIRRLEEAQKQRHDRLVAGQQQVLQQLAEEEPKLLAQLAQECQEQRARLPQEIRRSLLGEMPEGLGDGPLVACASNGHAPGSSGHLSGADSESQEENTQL

**Q.** With O=C(O)c1cccc(-n2cccc2/C=C2/NC(=O)N(c3ccc(Cl)cc3)C2=O)c1 as the compound, how does the IC50 [1] read?
**A.** > 122 µM (inactive)

**Q.** And the IC50 [2]?
**A.** > 122 µM (inactive)

**Q.** Which IC50 [1] does the source give for O=S(=O)(O)c1cc(Cl)cc(N=Nc2ccc(O)cc2O)c1O here?
**A.** > 122 µM (inactive)

**Q.** And the IC50 [2]?
**A.** > 122 µM (inactive)
